Test results from patent publication US4678792A, “Quaternary 3,4-dihydro-isoquinolinium salts” (Dr. Karl Thomae GmbH, priority 1984, dated 1987).
Like-named read-outs stand apart in the source and are kept apart here.

Experiments:
Thrombocyte aggregation = experiment: Antithrombotic activity: collagen-induced thrombocyte aggregation in platelet-rich plasma after oral administration (Born and Cross); type: in vivo, rat; settings: for inhibition at 5 mg/kg / inhibition at 10 mg/kg: po, read-out: Percentage inhibition of aggregation
Description: 1. Antithrombotic activity (see BORN and CROSS, J. Physiol. 170, 397 (1964)):
Groups of three male rats weighing about 500 g are given the test substances, suspended in 1% tylose (A and B) or in distilled water (C), in a volume of 0.2 ml per 100 g of the weight of the animal, by esophageal tube. Shortly before the blood samples are taken (1 hour after administration of the substance) the animals are anesthetised with sodium pentobarbital (50 mg/kg i.p.). After the abdomen has been opened up, the required quantity of blood is taken by puncturing the aorta.
The blood is treated with sodium citrate (0.2% final concentration) to prevent it coagulating. Since the aggregation before and after administration of the substance in rats cannot be measured in the same animal, sets of animals from which the plasma has been pooled are compared. In this way, multiple measurements can be made.
Thrombocyte aggregation is measured in platelet-rich plasma (PRP) (quantity of plasma for each test: 1 ml). In order to obtain the PRP, the blood is centrifuged for 10 minutes at 1,000 to 1,200 revolutions per minute (approx. 150 g). The low-platelet plasma for calibrating the aggregometer is obtained by centrifuging (4,000 rpm for 10 minutes).
The pattern of the decrease in optical density of the platelet suspension after the addition of collagen is measured photometrically and recorded. The height of the curve in mm measured at the moment of maximum light transmittance is the measurement of the intensity of aggregation. A 6-channel aggregometer is used for the measurements.
The quantity of collagen (2 to 5 μl/ml of plasma) is such that an irreversible reaction curve is obtained.
The sets of animals treated with the substance are compared with untreated control groups.

[1] = Tolerability: toxic side effects at the maximum dosages administered; type: in vivo
mouse = experiment: Approximate acute toxicity on the mouse after oral administration; type: in vivo; settings: 250 mg/kg oral, group of 10 animals, observation period of 14 days
Description: The approximate acute toxicity of substance B is tested on the mouse after oral administration of a dosage of 250 mg/kg to a group of 10 animals.

[2] = 5 mg/kg p.o., rat, 1 hour after administration, collagen, control 108 (B), 113 (C)
[3] = 10 mg/kg p.o., rat, 1 hour after administration, collagen, control 130 (A), 110 (B)
[4] = maximum dosages administered (10 mg/kg p.o.)

Row | Structure (SMILES) | Intensity of Aggregation, Height of curve (opt. density), Substance (Thrombocyte aggregation; [2]) | inhibition at 5 mg/kg (Thrombocyte aggregation; 5 mg/kg p.o., rat, 1 hour after administration, collagen) | toxic side effects ([1]; in vivo, po, 10 mg/kg) | Intensity of Aggregation, Height of curve (opt. density), Substance (Thrombocyte aggregation; [3]) | inhibition at 5 mg/kg (Thrombocyte aggregation; Rattus norvegicus, 1 h) | inhibition at 10 mg/kg (Thrombocyte aggregation; Rattus norvegicus, 1 h) | toxic side effects [1, 4] | Acute toxicity, deaths (mouse)
1 | COc1cc2c(cc1OC)CC[N+](Cc1cc(OC)c(OC)c(OC)c1)=C2.[Cl-] [C, 2-(3,4,5-Trimethoxybenzyl)-6,7-dimethoxy-3,4-dihydro-isoquinolinium chloride] | 10 mm | 89% | do not show any toxic side effects | – | – | – | – | –
2 | Clc1ccccc1C[N+]1=Cc2ccccc2CC1.O=S(=O)([O-])O [B, 2-(2-Chlorobenzyl)-3,4-dihydro-isoquinolinium hydrogensulphate] | 0 mm | – | – | 0 mm | 100% | 100% | do not show any toxic side effects | None of the animals died
3 | COc1cc2c(cc1OC)CC[N+](Cc1ccccc1Cl)=C2.O=S(=O)([O-])O [A, 2-(2-Chlorobenzyl)-6,7-dimethoxy-3,4-dihydro-isoquinolinium hydrogensulphate] | – | – | – | 69 mm | – | 47% | do not show any toxic side effects | –
